Experimental data published in PMC10017155 (Aging and Disease, 2023).
Entries after “also recorded” stand apart in the source; their conditions may differ. Peptide text beside a SMILES is read from it.

Experiments:
[1] = test system: C. elegans CL2120; test: Amyloid load by X-34 staining in C. elegans CL2120; type: in vivo
Protocol: C. elegans CL2120 (dvIs14 [(pCL12) unc-54::beta 1-42 +(pCL26) mtl-2::GFP]) and C. elegans CL2122 (dvIs15 [(pPD30.38) unc-54(vector) + (pCL26) mtl-2::GFP]) strains were obtained from the Caenorhabditis Genetics Center. The worms were handled according to standard methods without FUDR [18]. E. coli OP50 bacteria were grown overnight in Luria-Bertani broth and 50µl were spread atop NGM or NGMZn plates. NGMZn has 20μM ZnSO4. Seeded plates were incubated at 30°C for ~16 hours and then for 1-2 hours at 15 or 25°C before worms were transferred. Lifespan and paralysis experiments (see below) were performed at 25°C for enhanced expression of Aβ. This temperature is standard when studying the effects of Aβ on C. elegans CL2120 strain [19].
Nematodes were purified from unwanted microflora by the alkaline hypochlorite method, grown to the L4 stage at 15°C on NGM plates with bacterial lawn. […] Further, all contents were transferred to Petri plates with NGM or NGMZn with OP50 and placed in a temperature-controlled incubator at 25°C. Next day, worms were transferred onto similar media with a bacterial substrate and the lifespan was determined at 25°C (Supplementary Tables 3, 4).
Post-hoc analysis was performed with the Tukey test.
Figure 2.

[2] = biological target: T1, immobilized isoD7-Aβ42 (Homo sapiens, UniProt P05067); test: SPR analysis of HAEE binding to immobilized isoD7-Aβ42
T1 construct: isoD7-Aβ42 (DAEFRH[isoD][…]); purchased Biopeptide Co., LLC (San Diego, CA, USA); host or cells: chemical synthesis
T1 sequence (P05067 672-713): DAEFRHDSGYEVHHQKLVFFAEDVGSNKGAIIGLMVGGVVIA
Protocol: All SPR measurements were carried out at 25°C using an optical biosensor Biacore 8K (GE Healthcare, USA) with CM4 optical chip. Covalent immobilization of the peptide ligands on the surface of the optical chip was performed using the sulfhydryl group of the C-terminal tetragly-cylcysteine tag. Briefly, carboxyl groups on the chip surface were activated by serial injections of mixture of 0.4 M EDC/0.1 M NHS at a flow rate of 10 μL/min for 2 min and a solution of 80 mM PDEA in 100 mM borate buffer (pH 8.5) for 4 min. Solutions of 2 μM peptides in the immobilization buffer (10 mM acetate buffer, pH 4.5) were injected for 2 min at a flow rate of 10 μL/min (three repeats). Unreacted activated groups on the chip were blocked by further injection of a solution containing 50 mM cysteine, 1 M NaCl, 0.1 M sodium acetate (pH 4.3) for 4 min at a flow rate of 5 μL/min. Possible nonspecific analyte binding to the chip surface was evaluated using a free (control) channel of the biosensor exposed to the same treatments as the working channel except peptides. SPR signals were recorded in real time in resonance units (RU; 1 RU corresponds to […]) and were presented in the form of sensorgrams showing time-dependent signal changes. […] The obtained sensorgrams were analyzed with BIAevaluation v.4.1 software.

[3] = test system: transgenic mice; conditions: cited from earlier work
Description: The development of AD comprises a cascade of pathogenic processes in brain tissue. Some of the major elements of this cascade are the aggregation of beta-amyloid (Aβ) with the formation of neurotoxic oligomers, hyperphosphorylation of tau, and neuroinflammation. […] In the sporadic form of AD, accounting for 95% of disease cases, the molecular triggers for the pathological cascade remain unknown. […] We hypothesized that the contribution of isoD7-Aβ to the development of AD is based on the formation of zinc-bound complexes that promote pathological aggregation of Aβ (Fig. 1A). […] Interaction of HAEE with beta-amyloid. (A) A model for the contribution of isoD7-Aβ to AD pathology, and the possible ways of preventing its deleterious effects. Aβ spontaneously converts into isoD7-Aβ, which is accumulated over age, likely due to reduced Aβ clearance. Isomerized Aβ promotes AD pathology, potentially via formation of Zn-bound complexes serving as the seeds for a generation of neurotoxic oligomers. Treatment with anti-isoAβ antibodies is a promising therapeutic strategy already showing effectiveness in AD model mice ^9.

[4] = HAEE 4 mM + isoD7-Aβ42 40 µM, NGMZn, X-34

Compound: CC(=O)N[C@@H](Cc1c[nH]cn1)C(=O)N[C@@H](C)C(=O)N[C@@H](CCC(=O)O)C(=O)N[C@@H](CCC(=O)O)C(N)=O [HAEE, Ac-HAEE-NH2] (Ac-HAEE-NH2)
- Effect of HAEE on isoD7-Aβ42/Zn2+-induced amyloidosis [1, 4]: completely negated; also recorded: abrogates this pathological process; also recorded: fails to induce amyloidosis
- Number of plaques and plaque area [1, 4]: reduced back to the untreated group values
- Effect on endogenous amyloidosis in untreated transgenic C. elegans ([1]; HAEE alone): did not affect the endogenous amyloidosis
- Interaction with immobilized isoD7-Aβ42 in the absence of Zn2+ ([2]; 10 mM HEPES, pH 6.8, no Zn2+, 25°C): no interaction
- Kd ([2]; immobilized isoD7-Aβ42, 100 µM ZnCl2, pH 6.8, 25°C): 10.4 ± 0.4 µM
- Amyloid accumulation in animal models of AD [3]: hamper amyloid accumulation
